Toxic doses and inconclusive results are not listed.
Tested on: C57BL/6 mice, intracerebral ependymoblastoma, median survival T/C
Assay: NCI In Vivo Anticancer Drug Screen. Data for tumor model Ependymoblastoma (intracerebral) in C57BL/6 mice
Settings: endpoint: median survival time, higher = longer survival
Method: The antitumor activity of compounds was measured in mice bearing transplantable tumors. Survival or tumor size were measured and the results are expressed as the measurement made in the treated group (T) divided by the measurement made in the vehicle treated control group (C). The tumor model used in this assay is Ependymoblastoma (intracerebral) in C57BL/6 mice

[1] = dose: 2.0 mg/kg/injection, schedule: Q01DX005 (ip), vehicle: saline with Tween-80
[2] = dose: 4.0 mg/kg/injection, schedule: Q01DX005 (ip), vehicle: saline with Tween-80
[3] = dose: 0.05 mg/kg/injection, schedule: Q01DX005 (ip), vehicle: saline
[4] = dose: 0.1 mg/kg/injection, schedule: Q01DX005 (ip), vehicle: saline
[5] = dose: 0.2 mg/kg/injection, schedule: Q01DX005 (ip), vehicle: saline
[6] = dose: 0.4 mg/kg/injection, schedule: Q01DX005 (ip), vehicle: saline
[7] = dose: 0.8 mg/kg/injection, schedule: Q01DX005 (ip), vehicle: saline
[8] = dose: 32.0 mg/kg/injection, schedule: Q01DX005 (ip), vehicle: saline with Tween-80
[9] = dose: 64.0 mg/kg/injection, schedule: Q01DX005 (ip), vehicle: saline with Tween-80
[10] = dose: 128.0 mg/kg/injection, schedule: Q01DX005 (ip), vehicle: saline with Tween-80
[11] = dose: 256.0 mg/kg/injection, schedule: Q01DX005 (ip), vehicle: saline with Tween-80
[12] = dose: 8.0 mg/kg/injection, schedule: Q01DX005 (ip), vehicle: saline
[13] = dose: 16.0 mg/kg/injection, schedule: Q01DX005 (ip), vehicle: saline with Tween-80
[14] = dose: 16.0 mg/kg/injection, schedule: Q01DX005 (ip), vehicle: saline
[15] = dose: 32.0 mg/kg/injection, schedule: Q01DX005 (ip), vehicle: saline
[16] = dose: 80.0 mg/kg/injection, schedule: Q01DX001 (ip), vehicle: Klucel (hydroxypropylcellulose) (HPC)
[17] = dose: 32.0 mg/kg/injection, schedule: Q01DX005 (ip), vehicle: Klucel (hydroxypropylcellulose) (HPC)

CCC(=O)NC1=C(N2CC2C)C(=O)C(NC(=O)CC)=C(N2CC2C)C1=O (configuration not stated)
T/C (dose: 6.25 mg/kg/injection, schedule: Q01DX009 (ip), vehicle: Klucel (hydroxypropylcellulose) (HPC)): 105 % of control

COc1ccc2c(c1OC(C)=O)-c1cc(O)cc3c1C(C2)N(C(=O)CN(CCCl)CCCl)CC3 (configuration not stated)
T/C (dose: 12.5 mg/kg/injection, schedule: Q04DX003 (ip), vehicle: saline): 94 % of control | T/C (dose: 25.0 mg/kg/injection, schedule: Q04DX003 (ip), vehicle: saline): 99 % of control | T/C (dose: 50.0 mg/kg/injection, schedule: Q04DX003 (ip), vehicle: saline): 86 % of control

COc1cc(C[C@H]2c3cc(OC)c(OC)cc3CCN2C)c(Oc2cc3c(cc2OC)-c2c(OC)c(OC)cc4c2[C@H](C3)N(C)CC4)cc1OC
T/C (dose: 12.5 mg/kg/injection, schedule: Q01DX005 (ip), vehicle: saline with Tween-80): 97 % of control | T/C (dose: 25.0 mg/kg/injection, schedule: Q01DX005 (ip), vehicle: saline with Tween-80): 92 % of control | T/C (dose: 50.0 mg/kg/injection, schedule: Q01DX005 (ip), vehicle: saline with Tween-80): 100 % of control | T/C (dose: 100.0 mg/kg/injection, schedule: Q01DX005 (ip), vehicle: saline with Tween-80): 93 % of control

COc1cccc2c1C(=O)c1c(O)c3c(c(O)c1C2=O)C[C@@](O)(/C(C)=N/NC(=O)c1ccccc1)C[C@@H]3OC1CC(N)C(O)C(C)O1 (some centres not stated)
T/C (dose: 1.0 mg/kg/injection, schedule: Q01DX009 (ip), vehicle: saline): 108 % of control | T/C [1]: 100 % of control | T/C (dose: 2.0 mg/kg/injection, schedule: Q01DX009 (ip), vehicle: saline): 99 % of control | T/C [2]: 103 % of control | T/C (dose: 4.0 mg/kg/injection, schedule: Q01DX009 (ip), vehicle: saline): 113 % of control

CCC1CC2CC(c3cc4c(cc3OC)N(C)C3C(O)(C(=O)OC)C(OC(C)=O)C5(CC)C=CCN6CCC43C65)c3[nH]c4ccccc4c3CCN(C1)C2 (configuration not stated)
T/C [3]: 108 % of control | T/C [4]: 112 % of control | T/C [5]: 97 % of control | T/C [6]: 119 % of control | T/C [7]: 107 % of control | T/C (dose: 3.2 mg/kg/injection, schedule: Q01DX005 (ip), vehicle: saline): 96 % of control | T/C (dose: 6.4 mg/kg/injection, schedule: Q01DX005 (ip), vehicle: saline): 105 % of control | T/C (dose: 12.8 mg/kg/injection, schedule: Q01DX005 (ip), vehicle: saline): 102 % of control

N=C(N)SCc1c2ccccc2c(CSC(=N)N)c2ccccc12
T/C (dose: 2.5 mg/kg/injection, schedule: Q01DX005 (ip), vehicle: Klucel (hydroxypropylcellulose) (HPC)): 99 % of control | T/C (dose: 5.0 mg/kg/injection, schedule: Q01DX005 (ip), vehicle: Klucel (hydroxypropylcellulose) (HPC)): 100 % of control | T/C (dose: 10.0 mg/kg/injection, schedule: Q01DX005 (ip), vehicle: Klucel (hydroxypropylcellulose) (HPC)): 90 % of control | T/C (dose: 20.0 mg/kg/injection, schedule: Q01DX005 (ip), vehicle: Klucel (hydroxypropylcellulose) (HPC)): 102 % of control

O=C(N/N=C\c1cc(Br)cc(Br)c1O)N/N=C/c1cc(Br)cc(Br)c1O
T/C [8]: 88 % of control | T/C [9]: 97 % of control | T/C [10]: 88 % of control | T/C [11]: 93 % of control

O=C1c2c(O)ccc(O)c2C(=O)c2c(NCCNCCO)ccc(NCCNCCO)c21
T/C (dose: 1.0 mg/kg/injection, schedule: Q01DX005 (ip), vehicle: saline with Tween-80): 102 % of control | T/C [1]: 96 % of control | T/C [2]: 106 % of control

CC/C(=C(/CC)c1ccc(O)cc1)c1ccc(O)cc1
T/C [12]: 94 % of control | T/C [13]: 101 % of control | T/C [14]: 100 % of control | T/C [8]: 112 % of control | T/C [15]: 99 % of control | T/C [9]: 100 % of control | T/C (dose: 64.0 mg/kg/injection, schedule: Q01DX005 (ip), vehicle: saline): 110 % of control

CCC1=C[C@H]2CN(CCc3c([nH]c4ccccc34)[C@@](C(=O)OC)(c3cc4c(cc3OC)N(C)[C@H]3[C@@](O)(C(=O)OC)[C@H](OC(C)=O)[C@]5(CC)C=CCN6CC[C@]43[C@@H]65)C2)C1
T/C [3]: 100 % of control | T/C [4]: 108 % of control | T/C [5]: 110 % of control | T/C [6]: 103 % of control | T/C [7]: 102 % of control | T/C (dose: 1.6 mg/kg/injection, schedule: Q01DX005 (ip), vehicle: saline): 105 % of control

CN(N=O)C(N)=O
T/C (dose: 2.5 mg/kg/injection, schedule: Q01DX001 (ip), vehicle: Klucel (hydroxypropylcellulose) (HPC)): 120 % of control | T/C (dose: 5.0 mg/kg/injection, schedule: Q01DX001 (ip), vehicle: Klucel (hydroxypropylcellulose) (HPC)): 124 % of control | T/C [16]: 97 % of control

CC[C@]1(O)C[C@H]2CN(CCc3c([nH]c4ccccc34)[C@@](C(=O)OC)(c3cc4c(cc3OC)N(C=O)[C@H]3[C@@](O)(C(=O)OC)[C@H](OC(C)=O)[C@]5(CC)C=CCN6CC[C@]43[C@@H]65)C2)C1
T/C [3]: 108 % of control | T/C [4]: 103 % of control | T/C [5]: 105 % of control | T/C [6]: 124 % of control

Cc1c[nH]c(=O)[nH]c1=O
T/C [17]: 99 % of control | T/C [9]: 97 % of control | T/C (dose: 128.0 mg/kg/injection, schedule: Q01DX005 (ip), vehicle: Klucel (hydroxypropylcellulose) (HPC)): 97 % of control | T/C [10]: 102 % of control | T/C (dose: 256.0 mg/kg/injection, schedule: Q01DX005 (ip), vehicle: Klucel (hydroxypropylcellulose) (HPC)): 95 % of control | T/C [11]: 97 % of control | T/C (dose: 512.0 mg/kg/injection, schedule: Q01DX005 (ip), vehicle: Klucel (hydroxypropylcellulose) (HPC)): 106 % of control | T/C (dose: 512.0 mg/kg/injection, schedule: Q01DX005 (ip), vehicle: saline with Tween-80): 88 % of control | T/C (dose: 1024.0 mg/kg/injection, schedule: Q01DX005 (ip), vehicle: saline with Tween-80): 107 % of control

O=P1(NCCCl)OCCC(OO)N1CCCl (configuration not stated)
T/C (dose: 40.0 mg/kg/injection, schedule: Q01DX001 (ip), vehicle: Klucel (hydroxypropylcellulose) (HPC)): 121 % of control | T/C [16]: 121 % of control | T/C (dose: 160.0 mg/kg/injection, schedule: Q01DX001 (ip), vehicle: Klucel (hydroxypropylcellulose) (HPC)): 151 % of control

O=c1[nH]cc(F)c(=O)[nH]1
T/C (dose: 2.0 mg/kg/injection, schedule: Q01DX005 (ip), vehicle: saline): 113 % of control | T/C (dose: 2.5 mg/kg/injection, schedule: Q01DX005 (ip), vehicle: saline): 101 % of control | T/C (dose: 4.0 mg/kg/injection, schedule: Q01DX005 (ip), vehicle: saline): 108 % of control | T/C (dose: 5.0 mg/kg/injection, schedule: Q01DX005 (ip), vehicle: saline): 94 % of control | T/C [12]: 97 % of control | T/C (dose: 10.0 mg/kg/injection, schedule: Q01DX005 (ip), vehicle: saline): 97 % of control | T/C [14]: 106 % of control | T/C (dose: 20.0 mg/kg/injection, schedule: Q01DX005 (ip), vehicle: saline): 95 % of control | T/C [15]: 106 % of control

Clc1ccc(C(c2ccc(Cl)cc2)C(Cl)(Cl)Cl)cc1
T/C (dose: 8.0 mg/kg/injection, schedule: Q01DX005 (ip), vehicle: Klucel (hydroxypropylcellulose) (HPC)): 92 % of control | T/C (dose: 16.0 mg/kg/injection, schedule: Q01DX005 (ip), vehicle: Klucel (hydroxypropylcellulose) (HPC)): 101 % of control | T/C [17]: 96 % of control

O=S(=O)(O)O
T/C [13]: 90 % of control | T/C [8]: 94 % of control | T/C [9]: 112 % of control

Nc1nncs1
T/C (dose: 7.5 mg/kg/injection, schedule: Q01DX009 (ip), vehicle: Klucel (hydroxypropylcellulose) (HPC)): 112 % of control | T/C (dose: 15.0 mg/kg/injection, schedule: Q01DX009 (ip), vehicle: Klucel (hydroxypropylcellulose) (HPC)): 117 % of control | T/C [9]: 102 % of control
